# Results from US8865725B2, “Substituted imidazopyrimidin-5(6H)-ones as allosteric modulators of MGLUR5 receptors” (Vanderbilt University, priority 2011, dated 2014).
# Read-outs that look alike come from different tables or passages of the source.
# Legend:
# human mGluR5a receptor = human mGluR5a receptor (Homo sapiens, UniProt P41594); assay: Cell-based functional assay (Ca2+ mobilization, FDSS) for positive allosteric modulation of mGluR5; conditions: for EC50: potentiation in presence of EC20 glutamate; for Emax: maximum % effect in concentration-response curve, as percent of response to maximally effective glutamate concentration
# Procedure: The mGluR5 activity was determined using the metabotropic glutamate receptor activity assays in human embryonic kidney cells as described herein, wherein the human embryonic kidney cells were transfected with human mGluR5. The compounds in Table I were synthesized with methods identical or analogous to those shown herein. The Synthetic Route Reference indicated in Table I refers to the Reaction Scheme number described above. The requisite starting materials were commercially available, described in the literature, or readily synthesized by one skilled in the art of organic synthesis.
# Human mGluR5a cDNA in pCMV6-XL6 mammalian expression plasmid was purchased from OriGene Technologies, Inc. (catalogue number SC326357) and subcloned into pcDNA3.1(−). […] Monoclones were named for the species (“H” for human) plus the location on the plate (e.g. “10H”).
# HEK cells transfected with the human mGluR5a receptor (H10H or H12H cell line) were plated at 15,000 cells/well in clear-bottomed poly-D-lysine-coated assay plates (BD Falcon) in glutamate-glutamine-free growth medium and incubated overnight at 37° C. and 5% CO2. Cell-lines used were either the H10H or H12H cell-lines expressing the human mGluR5 receptor. The following day, the growth medium was removed and the cells were washed with assay buffer containing 1× Hank's balanced salt solution (Invitrogen, Carlsbad, Calif.), 20 mM HEPES, 2.5 mM probenecid, pH 7.4 and left with 20 μL of this reagent. Following this step, the cells were loaded with calcium indicator dye, fluo-4 AM, to a final concentration of 2 μM and incubated for 40-45 min at 37° C. The dye solution was removed and replaced with assay buffer. Cell plates were held for 10-15 min at room temperature and were then loaded into the Functional Drug Screening System 6000 (FDSS 6000, Hamamatsu, Japan).
# After establishment of a fluorescence baseline for about 3 seconds, the compounds of the present invention were added to the cells, and the response in cells was measured. 2.3 minutes later an EC20 concentration of the mGluR5 receptor agonist glutamate was added to the cells, and the response of the cells was measured for about 1.7 minutes. All test compounds were dissolved and diluted to a concentration of 10 mM in 100% DMSO and then serially diluted into assay buffer for a 2× stock solution in 0.6% DMSO; stock compounds were then added to the assay for a final DMSO concentration of 0.3% after the first addition to the assay well. Calcium fluorescence measures were recorded as fold over basal fluorescence; raw data was then normalized to the maximal response to glutamate.
# The concentration-response curves of compounds of the present invention, obtained in the presence of EC20 of mGluR5 receptor agonist glutamate to determine positive allosteric modulation, were generated using Microsoft Excel with IDBS XLfit add-ins. The raw data file containing all time points was used as the data source in the analysis template. This was saved by the FDSS as a tab-delimitted text file. Data were normalized using a static ratio function (F/F0) for each measurement of the total 350 values per well divided by each well's initial value. Data was then reduced as to peak amplitudes (Max—Initial Min) using a time range that starts approximately 1 second after the glutamate EC20 addition and continues for approximately 40 seconds. This is sufficient time to capture the peak amplitude of the cellular Calcium response. Individual amplitudes were expressed as % EMax by multiplying each amplitude by 100 and then dividing the product by the mean of the amplitudes derived from the glutamate ECMax-treated wells. pEC50 values for test compounds were generated by fitting the normalized values versus the log of the test compound concentration (in mol/L) using a 4 parameter logistic equation where none of the parameters were fixed.
# [1] = HEK cells transfected with human mGluR5a (H10H or H12H), read-out: EC50
# [2] = HEK cells transfected with human mGluR5a (H10H or H12H), concentration in mol/L, read-out: pEC50 (converted)
# [3] = EC50 (nM), HEK cells transfected with human mGluR5a (H10H or H12H)
# [4] = pEC50, HEK cells transfected with human mGluR5a (H10H or H12H), concentration in mol/L
# Chain of human mGluR5a receptor (P41594 21-1180 isoform P41594-2 limits assumed): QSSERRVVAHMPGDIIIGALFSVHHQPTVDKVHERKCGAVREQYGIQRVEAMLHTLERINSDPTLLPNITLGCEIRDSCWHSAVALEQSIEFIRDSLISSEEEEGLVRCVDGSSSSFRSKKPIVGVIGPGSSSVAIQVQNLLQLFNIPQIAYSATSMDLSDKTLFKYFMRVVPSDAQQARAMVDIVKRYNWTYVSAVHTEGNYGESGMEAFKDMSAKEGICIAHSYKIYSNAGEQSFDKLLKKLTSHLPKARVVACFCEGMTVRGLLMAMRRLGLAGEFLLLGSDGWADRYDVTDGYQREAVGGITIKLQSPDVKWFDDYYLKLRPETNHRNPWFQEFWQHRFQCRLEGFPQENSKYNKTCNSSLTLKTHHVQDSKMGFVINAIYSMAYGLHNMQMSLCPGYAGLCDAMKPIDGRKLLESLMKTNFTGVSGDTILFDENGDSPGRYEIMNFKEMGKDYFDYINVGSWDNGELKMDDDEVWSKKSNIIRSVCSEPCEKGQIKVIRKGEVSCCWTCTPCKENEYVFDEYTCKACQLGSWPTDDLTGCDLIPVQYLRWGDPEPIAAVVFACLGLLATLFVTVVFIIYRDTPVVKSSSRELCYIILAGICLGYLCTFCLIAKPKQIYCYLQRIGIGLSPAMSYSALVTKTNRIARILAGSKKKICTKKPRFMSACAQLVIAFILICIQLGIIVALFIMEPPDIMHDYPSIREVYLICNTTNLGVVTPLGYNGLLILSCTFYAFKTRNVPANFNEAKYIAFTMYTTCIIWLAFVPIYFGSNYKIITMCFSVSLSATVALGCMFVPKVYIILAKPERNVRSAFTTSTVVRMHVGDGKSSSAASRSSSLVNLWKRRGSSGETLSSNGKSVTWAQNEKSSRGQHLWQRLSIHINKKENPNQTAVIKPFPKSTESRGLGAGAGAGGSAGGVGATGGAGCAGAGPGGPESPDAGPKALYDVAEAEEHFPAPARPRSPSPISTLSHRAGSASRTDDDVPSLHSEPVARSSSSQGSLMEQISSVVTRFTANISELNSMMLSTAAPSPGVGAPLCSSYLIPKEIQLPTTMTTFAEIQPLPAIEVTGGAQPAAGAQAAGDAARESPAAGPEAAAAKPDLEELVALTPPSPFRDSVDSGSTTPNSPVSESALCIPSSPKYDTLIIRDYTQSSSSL
SMILES,EC50 (human mGluR5a receptor; [1]) [nM],Emax (human mGluR5a receptor) [%],melting point [°C],EC50 (human mGluR5a receptor; [2]) [nM],EC50 (human mGluR5a receptor; [3]) [nM],EC50 (human mGluR5a receptor; [4]) [nM]
N#Cc1cccc(OCc2cn3c(=O)n(-c4ccc(F)cc4)ccc3n2)c1 [compound 13],350,40,165,,,
Cc1ccnc(-n2ccc3nc(COc4ccccc4)cn3c2=O)c1 [compound 15],8320,51,239.4,> 10000,,
O=c1n(-c2ccc(F)cc2)cc(F)c2nc(COc3ccccc3)cn12 [compound 20],78,73,110.7,85.1,,
Cc1cccc(-n2ccc3nc(COc4ccccc4)cn3c2=O)n1 [compound 8],2290,43,> 300,2190,,
Cc1nc(-n2ccc3nc(COc4ccccc4)cn3c2=O)ccc1F [compound 10],292,70,199.5,,,
"Cc1c(COc2ccccc2)nc2n1C(=O)N(c1ccc(F)cc1)CC2 [compound 44, 6-(4-fluoro-phenyl)-3-methyl-2-phenoxymethyl-7,8-dihydro-6H-imidazo[1,2-c]pyrimidin-5-one]",> 30200,20,160.4,,,
O=c1n(CC2CC2)ccc2nc(COc3ccccc3)cn12 [compound 17],,51,102.1,1050,1100,
O=c1n(-c2cccc(C(F)(F)F)c2)ccc2nc(COc3ccc(Cl)cc3)cn12 [compound 21],> 10000,,141.8,,,
"COc1nccc(-n2ccc3nc(COc4ccccc4)cn3c2=O)n1 [compound 25, 6-(2-methoxy-pyrimidin-4-yl)-2-phenoxymethyl-6H-imidazo[1,2-c]pyrimidin-5-one]",570,46,171.2,,,
"Cc1ccc(N2CCc3nc(COc4ccccc4)cn3C2=O)nc1 [compound 36, 6-(5-methyl-pyridin-2-yl)-2-phenoxymethyl-7,8-dihydro-6H-imidazo[1,2-c]pyrimidin-5-one]",468,63,,,,
Cc1cc(-n2ccc3nc(COc4ccccc4)cn3c2=O)ncc1F [compound 23],327,60,203.1,331,,
"O=C1N(c2ccc(F)cc2)CCc2nc(COc3ccc(F)cc3)cn21 [compound 35, 2-(4-fluoro-phenoxymethyl)-6-(4-fluoro-phenyl)-7,8-dihydro-6H-imidazo[1,2-c]pyrimidin-5-one]",188,68,182.3,170,,
O=c1n(-c2ccc(F)cc2)ccc2nc(COc3cccc(F)c3)cn12 [compound 6],,73,141.1,214,224,
O=C1N(c2ccc(F)cn2)CCc2nc(COc3ccccc3)cn21 [compound 39],389,64,135,316,,
Cc1cc2nc(COc3ccccc3)cn2c(=O)n1-c1ccc(F)cc1 [compound 28],1860,49,143.6,1480,,
O=C1N(c2ccc(F)cc2)CCc2nc(COc3ccccc3)cn21 [compound 31],97,71,195.2,102,,
CN(C)c1cccc(-n2ccc3nc(COc4ccccc4)cn3c2=O)n1 [compound 24],201,64,136,209,,
O=c1n(-c2ccc(F)cc2)ccc2nc(COc3ccccc3)cn12 [compound 3],392,79,142.3,269,,

SMILES,EC50 (human mGluR5a receptor; [1]) [nM],Emax (human mGluR5a receptor) [%],melting point [°C],EC50 (human mGluR5a receptor; [2]) [nM],EC50 (human mGluR5a receptor; [3]) [nM],EC50 (human mGluR5a receptor; [4]) [nM]
O=C1N(c2ccc(F)cc2)CCc2nc(COc3cccc(F)c3)cn21 [compound 34],65,73,141.1,,,67.6
"O=c1n(-c2ccc(F)cc2)ccc2nc(COc3ccccc3)c(Cl)n12 [compound 29, 3-chloro-6-(4-fluoro-phenyl)-2-phenoxymethyl-6H-imidazo[1,2-c]pyrimidin-5-one]",> 30200,17,170.3,,,
O=c1n(-c2ccc(F)cc2)ccc2nc(COc3cccnc3)cn12 [compound 19],> 30200,59,> 300,,,
Cn1ccc2nc(COc3ccccc3)cn2c1=O [compound 2],> 10000,69,130.9,,,
O=C1N(c2ccc(F)c(F)c2)CCc2nc(COc3ccccc3)cn21 [compound 33],97,75,165.4,102,,
Cc1nc(N2CCc3nc(COc4ccccc4)cn3C2=O)ccc1F [compound 38],166,72,,,,178
Cc1ccc(-n2ccc3nc(COc4ccccc4)cn3c2=O)nc1 [compound 11],1320,59,209.4,1150,,
O=c1n(-c2ccc(F)cc2)ccc2nc(COc3ccccn3)cn12 [compound 18],2510,66,282.3,2140,,
O=c1n(-c2ccc(F)cc2)ccc2nc(COc3ccc(F)cc3)cn12 [compound 14],302,72,163.4,309,,
Cc1cccc(OCc2cn3c(=O)n(-c4ccc(F)cc4)ccc3n2)c1 [compound 12],468,33,,513,,
O=C1N(c2cccc(F)c2)CCc2nc(COc3ccccc3)cn21 [compound 32],,70,> 300,245,226,
"Cc1cccc(OCc2cn3c(n2)CCN(c2ccc(F)cc2)C3=O)c1 [compound 37, 6-(4-fluoro-phenyl)-2-m-tolyloxymethyl-7,8-dihydro-6H-imidazo[1,2-c]pyrimidin-5-one]",191,48,169.3,204,,
"O=c1[nH]ccc2nc(COc3ccccc3)cn12 [compound 1, 2-phenoxymethyl-6H-imidazo[1,2-c]pyrimidin-5-one]",> 30200,19,,,,
O=c1n(-c2cccc(C(F)(F)F)c2)ccc2nc(COc3ccc(F)cc3)cn12 [compound 16],1290,50,> 300,1170,,
O=c1n(-c2ccc(F)cn2)ccc2nc(COc3ccccc3)cn12 [compound 9],490,75,,,,
N#Cc1ccc(OCc2cn3c(=O)n(-c4cccc(C(F)(F)F)c4)ccc3n2)cc1 [compound 22],> 10000,,189.4,,,
"Cc1cn(-c2ccc(F)cc2)c(=O)n2cc(COc3ccccc3)nc12 [compound 27, 6-(4-fluoro-phenyl)-8-methyl-2-phenoxymethyl-6H-imidazo[1,2-c]pyrimidin-5-one]",> 30200,16,146.9,,,
O=c1n(-c2ccc(F)c(F)c2)ccc2nc(COc3ccccc3)cn12 [compound 5],,79,296.6,214,228,
